Measured values published in US10526316B2, “Quinoxaline and pyridopyrazine derivatives as PI3Kβ inhibitors” (Janssen Pharmaceutica NV, priority 2015, dated 2020).
Read-outs that look alike come from different tables or passages of the source.

Experiments:
kinase enzymes [1] = target: T1, kinase enzymes (Homo sapiens, UniProt P42336); assay: Enzyme binding assay (KINOMEscan, DiscoveRx), further kinases of Table A; settings: PIK3Cα_h
T1 construct: purchased DiscoveRx Corporation, San Diego (contract service, KINOMEscan)
Protocol: (§1) Enzyme Binding Assays (KINOMEscan®)
(§2) Kinase enzyme binding affinities of compounds disclosed herein were determined using the KINOMEscan technology performed by DiscoveRx Corporation, San Diego, Calif., USA (www.kinomescan.com).

kinase enzymes [2] = target: T2, kinase enzymes (Homo sapiens, UniProt P42345); assay: as above; settings: MTOR_h
T2 construct: purchased DiscoveRx Corporation, San Diego (contract service, KINOMEscan)
Protocol: as §1, §2

kinase enzymes [3] = target: T3, kinase enzymes (Homo sapiens, UniProt P48736); assay: as above; settings: PIK3Cγ_h
T3 construct: purchased DiscoveRx Corporation, San Diego (contract service, KINOMEscan)
Protocol: as §1, §2

[4] = system: Akt phosphorylated at Thr308 in PC-3 cells; assay: Cellular assay: phosphorylation of Akt at Thr308 in PC-3 cells (MSD ELISA); assay type: cell-based; settings: PC-3 cells, 60 min compound incubation, MSD ELISA, read-out: IC50 pAkt_Thr308
Protocol: (§3) Cellular activity of PI3KP inhibitors was determined by quantifying the phosphorylation of Akt in PC-3 cells. Akt phosphorylated at Ser473 and Thr308 were measured using an enzyme-linked immunosorbent assay (ELISA; Meso Scale Discovery (MSD), Gaithersburg. Md.) and specific primary antibodies from MSD.
(§4) On day 2, compound or DMSO (0.3%) was added and cells were further incubated for 60 min at 37° C. 5% CO2 in a total volume of 100 μl of medium.
(§5) The phosphoprotein assay was executed according to vendor instructions in the Phospho-Akt (Ser473) Assay Whole Cell Lysate Kit (MSD # K15100D-3) and the Phospho-Akt (Thr308) Assay Whole Cell Lysate Kit (MSD # K151DYD-3) using the lysis, blocking and wash buffer provided.
(§6) Briefly, at the end of the cell treatment period, media were removed by aspiration and adherent cells were lysed in 50 μl ice-cold lysis buffer. MSD plates are supplied pre-coated with capture antibodies for Phospho-Akt (Ser473 and Thr308). After blocking, lysates from tissue culture plates were added and plates were washed. Then, a solution containing the detection antibody (anti-total Akt conjugated with an electrochemiluminescent compound-MSD Sulfo-tag label) was added. The signals were detected using an MSD SECTOR Imager 6000 and are proportional to the phospho-Akt titres.
(§7) Data were processed. […] From these concentration-response curves, the IC50 values were calculated. Five concentrations were used for curve fitting.

[5] = system: Akt phosphorylated at Ser473 in PC-3 cells; assay: Cellular assay: phosphorylation of Akt at Ser473 in PC-3 cells (MSD ELISA); assay type: cell-based; settings: PC-3 cells, 60 min compound incubation, MSD ELISA, read-out: IC50 pAkt_S473
Protocol: as §3, §4, §5, §6, §7

PI3Kδ = target: T4, PI3Kδ (Homo sapiens, UniProt O00329); assay: Enzyme binding assay (KINOMEscan, DiscoveRx); settings: PIK3Cδ_h
T4 construct: purchased DiscoveRx Corporation, San Diego (contract service, KINOMEscan)
T4 sequence (O00329 1-1044): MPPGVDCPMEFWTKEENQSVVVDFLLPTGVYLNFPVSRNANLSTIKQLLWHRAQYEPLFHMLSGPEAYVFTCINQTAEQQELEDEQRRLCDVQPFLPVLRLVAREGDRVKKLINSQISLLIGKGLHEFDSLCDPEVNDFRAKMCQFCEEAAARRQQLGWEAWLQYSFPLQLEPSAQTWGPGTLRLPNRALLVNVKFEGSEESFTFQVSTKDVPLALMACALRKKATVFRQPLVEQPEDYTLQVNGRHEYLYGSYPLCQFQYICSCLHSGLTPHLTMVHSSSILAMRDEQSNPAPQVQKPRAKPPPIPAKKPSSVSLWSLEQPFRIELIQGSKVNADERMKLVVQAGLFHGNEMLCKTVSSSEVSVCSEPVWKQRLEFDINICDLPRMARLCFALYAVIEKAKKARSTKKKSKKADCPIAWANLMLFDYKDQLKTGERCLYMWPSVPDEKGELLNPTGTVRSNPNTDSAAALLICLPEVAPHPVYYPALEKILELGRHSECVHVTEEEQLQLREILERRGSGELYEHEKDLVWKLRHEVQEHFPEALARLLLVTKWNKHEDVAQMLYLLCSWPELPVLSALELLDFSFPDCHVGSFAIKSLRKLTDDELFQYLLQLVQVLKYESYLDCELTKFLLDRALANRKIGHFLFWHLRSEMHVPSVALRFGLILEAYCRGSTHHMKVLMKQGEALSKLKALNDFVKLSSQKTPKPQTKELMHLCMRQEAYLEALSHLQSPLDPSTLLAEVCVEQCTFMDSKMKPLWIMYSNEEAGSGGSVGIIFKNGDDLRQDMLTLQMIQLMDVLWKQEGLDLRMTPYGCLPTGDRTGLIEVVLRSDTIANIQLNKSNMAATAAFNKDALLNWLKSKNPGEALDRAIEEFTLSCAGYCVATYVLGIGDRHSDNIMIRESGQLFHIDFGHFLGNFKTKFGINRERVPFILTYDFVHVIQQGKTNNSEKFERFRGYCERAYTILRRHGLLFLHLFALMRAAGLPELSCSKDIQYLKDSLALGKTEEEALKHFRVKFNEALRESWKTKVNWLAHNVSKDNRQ
Protocol: as §1, §2

PI3Kβ = target: T5, PI3Kβ (Homo sapiens, UniProt P42338); assay: Enzyme binding assay (KINOMEscan, DiscoveRx); settings: PIK3Cβ_h, read-out: Kd PIK3Cβ_h
T5 construct: purchased DiscoveRx Corporation, San Diego (contract service, KINOMEscan)
Protocol: as §1
Kinase enzyme binding affinities of compounds disclosed herein were determined using the KINOMEscan technology performed by DiscoveRx Corporation, San Diego, Calif., USA (www.kinomescan.com). Table A reports the obtained Kd values (nM), with the Kd being the inhibitor binding constant: […]

T5 sequence (P42338 whole entry): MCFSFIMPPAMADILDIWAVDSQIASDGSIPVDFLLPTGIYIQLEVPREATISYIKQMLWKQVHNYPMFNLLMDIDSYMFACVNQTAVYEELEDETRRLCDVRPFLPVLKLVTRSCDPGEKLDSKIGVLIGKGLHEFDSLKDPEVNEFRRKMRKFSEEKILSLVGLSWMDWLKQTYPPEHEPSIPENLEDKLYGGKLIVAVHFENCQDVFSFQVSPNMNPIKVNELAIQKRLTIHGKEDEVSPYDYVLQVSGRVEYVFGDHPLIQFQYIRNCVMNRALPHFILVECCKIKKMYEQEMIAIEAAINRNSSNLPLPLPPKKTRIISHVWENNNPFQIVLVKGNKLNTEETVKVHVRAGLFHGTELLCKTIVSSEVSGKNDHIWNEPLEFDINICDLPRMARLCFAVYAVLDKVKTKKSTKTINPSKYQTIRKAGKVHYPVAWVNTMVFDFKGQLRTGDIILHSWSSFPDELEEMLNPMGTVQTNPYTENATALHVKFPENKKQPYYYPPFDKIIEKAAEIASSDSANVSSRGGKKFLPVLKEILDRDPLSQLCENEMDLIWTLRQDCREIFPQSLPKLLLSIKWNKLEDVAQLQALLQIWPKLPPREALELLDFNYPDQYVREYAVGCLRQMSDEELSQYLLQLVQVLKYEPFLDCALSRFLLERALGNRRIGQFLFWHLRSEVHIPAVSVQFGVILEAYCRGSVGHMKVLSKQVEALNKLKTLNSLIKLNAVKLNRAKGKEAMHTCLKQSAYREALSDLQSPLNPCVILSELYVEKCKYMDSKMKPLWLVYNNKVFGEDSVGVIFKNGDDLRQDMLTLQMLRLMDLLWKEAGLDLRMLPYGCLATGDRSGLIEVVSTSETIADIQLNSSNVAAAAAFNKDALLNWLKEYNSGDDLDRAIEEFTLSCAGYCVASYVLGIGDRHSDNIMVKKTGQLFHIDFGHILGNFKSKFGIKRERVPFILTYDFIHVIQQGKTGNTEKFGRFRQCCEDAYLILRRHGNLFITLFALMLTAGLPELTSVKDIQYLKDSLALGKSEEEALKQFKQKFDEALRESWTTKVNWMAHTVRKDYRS
T1 sequence (P42336 whole entry): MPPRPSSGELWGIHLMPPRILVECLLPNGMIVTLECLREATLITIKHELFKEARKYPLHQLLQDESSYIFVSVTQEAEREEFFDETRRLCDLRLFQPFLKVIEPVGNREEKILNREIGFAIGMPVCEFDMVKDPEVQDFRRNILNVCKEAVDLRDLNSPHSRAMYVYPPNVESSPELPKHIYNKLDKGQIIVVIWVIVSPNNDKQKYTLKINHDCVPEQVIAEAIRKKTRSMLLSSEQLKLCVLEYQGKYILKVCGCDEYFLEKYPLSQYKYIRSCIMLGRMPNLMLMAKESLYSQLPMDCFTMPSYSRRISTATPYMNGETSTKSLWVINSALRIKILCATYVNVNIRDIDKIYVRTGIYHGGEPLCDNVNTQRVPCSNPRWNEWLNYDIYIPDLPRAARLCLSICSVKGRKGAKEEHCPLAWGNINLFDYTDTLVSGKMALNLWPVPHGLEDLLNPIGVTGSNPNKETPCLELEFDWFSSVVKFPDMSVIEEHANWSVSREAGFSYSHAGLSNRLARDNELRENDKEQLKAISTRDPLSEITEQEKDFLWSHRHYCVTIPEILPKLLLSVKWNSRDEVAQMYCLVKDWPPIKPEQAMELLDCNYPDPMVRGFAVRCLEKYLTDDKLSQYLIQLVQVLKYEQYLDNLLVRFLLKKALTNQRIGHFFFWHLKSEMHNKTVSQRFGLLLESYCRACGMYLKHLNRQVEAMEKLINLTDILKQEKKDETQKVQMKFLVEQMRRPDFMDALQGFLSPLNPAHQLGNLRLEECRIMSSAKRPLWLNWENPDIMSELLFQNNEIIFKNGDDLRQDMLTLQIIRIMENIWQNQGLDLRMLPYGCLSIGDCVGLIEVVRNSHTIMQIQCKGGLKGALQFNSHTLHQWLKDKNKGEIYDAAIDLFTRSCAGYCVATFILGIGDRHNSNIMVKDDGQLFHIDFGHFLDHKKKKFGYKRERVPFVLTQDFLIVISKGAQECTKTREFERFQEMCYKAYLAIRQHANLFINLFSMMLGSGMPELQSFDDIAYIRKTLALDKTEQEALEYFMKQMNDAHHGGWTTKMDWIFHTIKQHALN
T3 sequence (P48736 whole entry): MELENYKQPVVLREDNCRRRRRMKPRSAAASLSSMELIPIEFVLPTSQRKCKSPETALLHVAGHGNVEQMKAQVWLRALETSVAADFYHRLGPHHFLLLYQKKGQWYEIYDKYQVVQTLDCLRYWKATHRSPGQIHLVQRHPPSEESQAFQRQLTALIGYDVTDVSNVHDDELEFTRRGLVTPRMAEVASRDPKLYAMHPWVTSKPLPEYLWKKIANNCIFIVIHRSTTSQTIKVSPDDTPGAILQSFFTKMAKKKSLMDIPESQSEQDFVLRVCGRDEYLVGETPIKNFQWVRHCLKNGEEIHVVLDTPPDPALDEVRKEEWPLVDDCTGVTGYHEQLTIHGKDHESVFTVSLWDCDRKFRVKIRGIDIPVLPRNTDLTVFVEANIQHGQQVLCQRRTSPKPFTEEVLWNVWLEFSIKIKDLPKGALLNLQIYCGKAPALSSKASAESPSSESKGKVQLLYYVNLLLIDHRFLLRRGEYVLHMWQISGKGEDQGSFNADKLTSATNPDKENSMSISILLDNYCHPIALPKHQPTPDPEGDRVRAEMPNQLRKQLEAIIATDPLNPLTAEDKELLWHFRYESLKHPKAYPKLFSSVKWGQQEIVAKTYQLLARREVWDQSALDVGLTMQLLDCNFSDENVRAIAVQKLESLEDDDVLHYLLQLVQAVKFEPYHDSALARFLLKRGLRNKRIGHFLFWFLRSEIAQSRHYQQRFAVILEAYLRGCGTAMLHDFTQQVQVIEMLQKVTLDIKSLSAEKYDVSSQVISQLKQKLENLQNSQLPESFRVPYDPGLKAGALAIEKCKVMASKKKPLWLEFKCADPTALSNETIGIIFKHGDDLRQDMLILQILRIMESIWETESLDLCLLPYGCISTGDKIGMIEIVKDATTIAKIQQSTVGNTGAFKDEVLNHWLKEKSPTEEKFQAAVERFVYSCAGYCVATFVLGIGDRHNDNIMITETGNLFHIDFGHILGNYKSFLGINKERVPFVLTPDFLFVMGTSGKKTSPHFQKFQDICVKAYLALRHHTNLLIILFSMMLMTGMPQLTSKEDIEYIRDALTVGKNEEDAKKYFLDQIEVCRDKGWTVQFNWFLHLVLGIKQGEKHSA

Row | Compound | Kd (kinase enzymes [1]) [nM] | Kd (kinase enzymes [2]) [nM] | Kd (kinase enzymes [3]) [nM] | IC50 [4] [nM] | IC50 [5] [nM] | Kd (PI3Kδ) [nM] | Kd (PI3Kβ) [nM] | IC50 ([4]; Homo sapiens, PC-3, 1 h) [nM] | IC50 ([5]; Homo sapiens, PC-3, 1 h) [nM]
1 | CCN1CCN(C(=O)c2cc(C(C)Oc3cccc(F)c3)c3nc(N4CCOCC4)cnc3c2)CC1 (single isomer, unassigned) [Compound 92] | 16200 | > 30200 | > 30200 | > 513 | > 513 | 16600 | 1020 |  | 
2 | CC(Oc1ccc(Cl)c(F)c1)c1cc(C(=O)N(C)CCN(C)C)cc2ncc(N3CCOCC3)nc12 (single isomer, unassigned) [Compound 313b] | 14500 | > 30200 | > 30200 | > 513 | > 513 | 5490 | 302 |  | 
3 | O=C(NCCO)c1cc(N2CCC2c2ccc(F)cc2)c2nc(N3CCOCC3)cnc2c1 (stereo not drawn) [Compound 391] | 5490 | 24500 | 12000 |  |  | 3390 | 251 | > 513 | > 513
4 | CC(Oc1ccc(F)c(F)c1)c1cc(C(=O)N2CC[C@@H](N(C)C)C2)cc2ncc(N3CCOCC3)nc12 (single isomer, unassigned) [Compound 298b] | 24000 | > 30200 | > 30200 | > 513 | 501 | 10200 | 186 |  | 
5 | Cc1c(F)cccc1NCc1cc(C(=O)NCCO)cc2ncc(N3CCOCC3)nc12 [Compound 381] | 3550 | > 30200 | 8320 |  |  | 3800 | 26 | 117 | 209
6 | CC(Nc1cccc(F)c1)c1cc(C(=O)NC[C@@H](C)O)cc2ncc(N3CCOCC3)nc12 (stereo partly drawn) [Compound 338] | 2340 | > 30200 | 4370 |  |  | 2950 | 12 | 98 | 275
7 | Cc1c(F)cccc1CN(C)c1cc(C(=O)N(C)C)cc2ncc(N3CCOCC3)nc12 [Compound 354] | 8130 | > 30200 | 28200 |  |  | 2400 | 63 | > 513 | > 513
8 | CC(Nc1cc(F)cc(F)c1)c1cc(C(=O)N2CCNC(C(F)(F)F)C2)cc2ncc(N3CCOCC3)nc12 (single isomer, unassigned) [Compound 237c] | 372 | > 30200 | 5490 | 11 | 26 | 234 | 4 |  | 
9 | COC(=O)c1cc(C(C)Nc2cc(F)cc(F)c2)c2nc(N3CCOCC3)cnc2c1 (stereo not drawn) [Compound 235] | > 32000 | > 32000 | 24500 |  |  | 7590 | 50 | 79 | 214
10 | CNCCN(C)C(=O)c1cc(C(C)Nc2cc(F)cc(F)c2)c2nc(N3CCOCC3)cnc2c1 (single isomer, unassigned) [Compound 152] | 3980 | > 30200 | 8710 | 87 | 62 | 1820 | 10 |  | 
11 | Fc1cc(F)cc(N2CCCC2c2cncc3ncc(N4CCOCC4)nc23)c1 (stereo not drawn) [Compound 23] | 324 | 15100 | 724 |  |  | 331 | 1 | 42 | ~68
12 | O=C(NCCO)c1cc(N2CCCC2c2cc(F)cc(F)c2)c2nc(N3CCOCC3)cnc2c1 (single isomer, unassigned) [Compound 245] | 8710 | 21900 | 13200 | > 513 | > 513 | 1050 | 72 |  | 
13 | Cc1c(F)cccc1CN(C)c1cc(C(=O)N(C)[C@@H]2CCNC2)cc2ncc(N3CCOCC3)nc12 [Compound 359] | 11300 | 6460 | 28800 |  |  | 796 | 43 | > 513 | > 513
14 | CC(Oc1ccc(F)c(F)c1)c1cc(C(=O)N2CCN3CCC[C@H]3C2)cc2ncc(N3CCOCC3)nc12 (single isomer, unassigned) [Compound 369a] | 7240 | 25100 | > 30200 | 251 |  | 525 | 20 |  | ~363
15 | CCN1CCN(C(=O)c2cc(C(C)Oc3cccc(F)c3)c3nc(N4CCOCC4)cnc3c2)CC1 (stereo not drawn) [Compound 90] | 9120 | > 30200 | 22900 |  |  | 741 | 17 | > 513 | > 513
16 | CN[C@H]1CCN(C(=O)c2cc(C(C)Nc3ccc(F)c(F)c3)c3nc(N4CCOCC4)cnc3c2)C1 (single isomer, unassigned) [Compound 365a] | 5250 | > 30200 | 10200 |  |  | 204 | 1 | 35 | 52
17 | CC(Nc1cc(F)cc(F)c1)c1cc(C(C)(C)O)cc2ncc(N3CCOCC3)nc12 (stereo not drawn) [Compound 341] | 3390 | 21400 | 8130 |  |  | 1480 | 17 | 26 | 46
18 | CC(Oc1cccc(F)c1F)c1cc(C(=O)N(C)C)cc2ncc(N3CCOCC3)nc12 (single isomer, unassigned) [Compound 74] | 8510 | 23400 | > 30200 | > 513 | > 513 | 5620 | 603 |  | 
19 | CC(Oc1cccc(F)c1F)c1cc(C(=O)N(C)C)cc2ncc(N3CCOCC3)nc12 (single isomer, unassigned) [Compound 73] | 2040 | > 30200 | 19500 |  |  | 282 | 9 | 331 | > 513
20 | CC(C)NCCNC(=O)c1cc(C(C)Oc2ccc(F)c(F)c2)c2nc(N3CCOCC3)cnc2c1 (racemic) [Compound 286] | 7410 | > 30200 | 17000 | 245 | 398 | 2040 | 18 |  | 
21 | CC(Oc1cc(F)ccc1NCCN)c1cc(C(=O)N(C)C)cc2ncc(N3CCOCC3)nc12 (stereo not drawn) [Compound 79] | 2290 | > 30200 | 20000 |  |  | 204 | 2 | 123 | 158
